Laboratory results as given in patent US20070197446A1, “MHC binding peptides and their uses” (ProImmune Limited, priority 2006, published 2007).

Legend:
Assay type in all cases: binding
HLA-B*0702 = HLA-B*0702 (Homo sapiens, UniProt P01889)
HLA-B*3501 = HLA-B*3501 (Homo sapiens, UniProt P01889, A329T/A93T/A95T/C349S/D201E/D98Y/E176V/E187L/E204Q/E69T/I218V/K202T/L119I/Q94N/R155S/R180L/S121R/S35A/S48A/T118I/V127L/V306I/V36M/Y140S/Y91F)
HLA-A*0201 = HLA-A*0201 (Homo sapiens, UniProt P04439, D140Y/D185E/D98H/E176V/E277Q/G131W/G231S/I119V/I121R/I166T/I218V/L300P/L318F/N151K/N90K/P208A/P217A/Q86G/Q94H/R138H/R169H/T345S)
HLA-A*0301 = HLA-A*0301 (Homo sapiens, UniProt P04439)
HLA-A*0101 = HLA-A*0101 (Homo sapiens, UniProt P04439, A114D/A174V/A182V/D101N/D185E/E176A/E190D/L180R/Q94H/R68K/S129P/T187R/V100A/V91M/W191G)
HLA-B*0801 = HLA-B*0801 (Homo sapiens, UniProt P01889, A93T/A95T/D138N/E176V/E187T/K202T/Q94N/R180D/S35A/V36M/Y33D/Y91F)

Sequence	ELISA (Absorption-Pass/Fail Control) (HLA-A*0201)	ELISA (Absorption-Pass/Fail Control) (HLA-B*0801)	also measured
LVKSDQICI [SEQ ID NO: 29]			ELISA (Absorption-Pass/Fail Control) (HLA-B*0702): −0.06; ELISA (Absorption-Pass/Fail Control) (HLA-B*3501): 0.04
AIVSLVKSD [SEQ ID NO: 14]	0.43		
ILRGSVAHK (T cell epitope) [SEQ ID NO: 5, reference compound]			ELISA (Absorption-Pass/Fail Control) (HLA-A*0301): 1.19; efficiency of binding to HLA-A*0301 (in words) (HLA-A*0301): high efficiency
LGNPMCDEF [SEQ ID NO: 43]			ELISA (Absorption-Pass/Fail Control) (HLA-B*3501): 0.35
KLCDLDGVK [SEQ ID NO: 22]	0.20		ELISA (Absorption-Pass/Fail Control) (HLA-A*0301): 1.16
YSEHPFTSQY (T cell epitope) [SEQ ID NO: 2, reference compound]			ELISA (Absorption-Pass/Fail Control) (HLA-A*0101): 0.58; efficiency of binding to HLA-A*0101 (in words) (HLA-A*0101): high efficiency
VLLFAIVSL [SEQ ID NO: 11]	0.47		
DTIMEKNVT [SEQ ID NO: 32]		0.08	
YIVEKANPV [SEQ ID NO: 26]	1.02	0.32	ELISA (Absorption-Pass/Fail Control) (HLA-B*0702): 0.11
FINVPEWSY [SEQ ID NO: 10]			ELISA (Absorption-Pass/Fail Control) (HLA-A*0101): 0.16; ELISA (Absorption-Pass/Fail Control) (HLA-B*3501): 0.57
TIMEKNVTV [SEQ ID NO: 18]	0.99	0.80	ELISA (Absorption-Pass/Fail Control) (HLA-B*0702): 0.00
WLLGNPMCD [SEQ ID NO: 38]		0.03	
VAGWLLGNP [SEQ ID NO: 37]		0.04	
LFAIVSLVK [SEQ ID NO: 40]			ELISA (Absorption-Pass/Fail Control) (HLA-B*3501): 0.10
KSDQICIGY [SEQ ID NO: 9]			ELISA (Absorption-Pass/Fail Control) (HLA-A*0101): 0.47; ELISA (Absorption-Pass/Fail Control) (HLA-A*0301): 0.05
HANNSTEQV [SEQ ID NO: 17]	0.43		ELISA (Absorption-Pass/Fail Control) (HLA-B*3501): 0.43
NVTVTHAQD [SEQ ID NO: 27]		0.08	ELISA (Absorption-Pass/Fail Control) (HLA-A*0301): −0.04
HPVGEADYFEY (T cell epitope) [SEQ ID NO: 8, reference compound]			ELISA (Absorption-Pass/Fail Control) (HLA-B*3501): 0.55; efficiency of binding to HLA-B*3501 (in words) (HLA-B*3501): high efficiency
LILRDCSVA [SEQ ID NO: 23]	0.57	0.07	
TPRVTGGGAM (T cell epitope) [SEQ ID NO: 6, reference compound]			ELISA (Absorption-Pass/Fail Control) (HLA-B*0702): 0.88; efficiency of binding to HLA-B*0702 (in words) (HLA-B*0702): high efficiency

Sequence	ELISA (Absorption-Pass/Fail Control) (HLA-A*0201)	ELISA (Absorption-Pass/Fail Control) (HLA-B*0801)	also measured
SLVKSDQIC [SEQ ID NO: 16]	0.09		ELISA (Absorption-Pass/Fail Control) (HLA-B*3501): −0.03
DILEKKHNG [SEQ ID NO: 34]		0.53	
AQDILEKKH [SEQ ID NO: 21]	0.15		
IVSLVKSDQ [SEQ ID NO: 15]	0.04		
VTHAQDILE [SEQ ID NO: 33]		0.31	
MEKNVTVTH [SEQ ID NO: 20]	−0.02		
GNPMCDEFI [SEQ ID NO: 39]		0.04	
KKHNGKLCD [SEQ ID NO: 41]			ELISA (Absorption-Pass/Fail Control) (HLA-B*3501): −0.05
PMCDEFINV [SEQ ID NO: 24]	0.98		
PLILRDCSV [SEQ ID NO: 36]		0.65	
VSLVKSDQI [SEQ ID NO: 31]		0.36	
AGWLLGNPM [SEQ ID NO: 42]			ELISA (Absorption-Pass/Fail Control) (HLA-B*3501): −0.06
ILEKKHNGK [SEQ ID NO: 28]		0.95	ELISA (Absorption-Pass/Fail Control) (HLA-A*0301): −0.01
NVPEWSYIV [SEQ ID NO: 25]	1.03		
LLFAIVSLV [SEQ ID NO: 12]	1.06		
IMEKNVTVT [SEQ ID NO: 19]	0.02		
KPLILRDCS [SEQ ID NO: 35]		0.10	
FAIVSLVKS [SEQ ID NO: 13]	0.07		
ILRDCSVAG [SEQ ID NO: 30]			ELISA (Absorption-Pass/Fail Control) (HLA-B*0702): 0.03
